Experimental data as given in patent US20130203649A1, “INHIBITORS OF TLR SIGNALING BY TARGETING TIR DOMAIN INTERFACES” (UNIVERSITY OF MARYLAND, BALTIMORE, priority 2012, published 2013).
“Also recorded” adds a separate entry of the source. No end group written: not given here.

How the values were obtained:
Format in all cases: cell-based
TLR2/TLR1 heterodimer [1] = target: T1, TLR2/TLR1 heterodimer (Mus musculus, UniProt Q9QUN7); experiment: P3C-induced ERK phosphorylation in primary macrophages (Western analysis); conditions: P3C 30 min
T1 construct: endogenous in cells; host or cells: thioglycollate-elicited mouse peritoneal macrophages
T1 sequence (Q9QUN7 25-784, one chain of several): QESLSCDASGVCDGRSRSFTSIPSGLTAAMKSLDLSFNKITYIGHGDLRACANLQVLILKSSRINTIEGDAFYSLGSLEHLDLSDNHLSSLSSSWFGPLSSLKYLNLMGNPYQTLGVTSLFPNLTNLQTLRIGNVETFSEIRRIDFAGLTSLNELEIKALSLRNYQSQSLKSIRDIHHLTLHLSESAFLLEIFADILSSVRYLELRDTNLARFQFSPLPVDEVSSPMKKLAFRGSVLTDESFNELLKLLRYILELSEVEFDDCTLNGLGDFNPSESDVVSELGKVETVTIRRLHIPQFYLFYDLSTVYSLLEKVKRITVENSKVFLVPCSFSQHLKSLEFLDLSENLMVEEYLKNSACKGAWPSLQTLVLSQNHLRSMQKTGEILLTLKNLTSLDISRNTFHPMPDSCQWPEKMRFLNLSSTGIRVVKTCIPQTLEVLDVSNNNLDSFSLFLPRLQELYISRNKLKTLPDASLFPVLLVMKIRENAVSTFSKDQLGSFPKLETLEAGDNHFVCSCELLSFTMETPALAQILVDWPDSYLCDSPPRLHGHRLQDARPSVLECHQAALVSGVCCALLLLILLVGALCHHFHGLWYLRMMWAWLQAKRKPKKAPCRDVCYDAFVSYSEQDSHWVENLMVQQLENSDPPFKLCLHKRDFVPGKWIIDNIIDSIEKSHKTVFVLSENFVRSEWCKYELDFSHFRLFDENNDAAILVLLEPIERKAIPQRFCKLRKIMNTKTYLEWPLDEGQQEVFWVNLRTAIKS
Procedure: (§1) FIG. 3. Effect of TIRAP decoy peptides on TLR2 signaling. Thioglycollate-elicited macrophages were incubated in the presence of 20 (black columns) or 40 μM (open columns) of a decoy peptide for 30 min prior to stimulation with P3C (500 ng/ml) (A and C) or P2C (50 ng/ml) (B). Cytokine mRNA expression was measured 1 h after TLR2 stimulation and is normalized to the expression of HPRT gene. C. IL-6 and TNF-α were measured by ELISA in macrophage supernatants collected 5 h after P3C (500 ng/ml) stimulation. D. Peptides TR3 and TR6 inhibit ERK activation induced by TLR2 agonist, P3C. ERK phosphorylation was measured by Western analysis in primary macrophage stimulated by P3C for 30 min.
Cellular protein extracts were isolated by addition of 240 μL per well cold lysate buffer (20 mM Tris, 50 mM NaCl, 1.5 mM MgCl2, 2 mM EDTA, 10 mM NaF, 2 Mm DTT, 1 mM Na3VO4, 1% Triton). Cells were incubated with lysis solution for 30 min on agitator at 4° C. […] After quantification using BioRad protein assay, protein samples were added to Laemmli buffer and then boiled for 10 min. […]
(§2) Because of the role TRAP plays in TLR2 signaling, TIRAP TIR-derived decoy peptide effects on TLR2-induced cytokine mRNA expression were examined. […] To confirm the inhibitory effect of TR3 and TR6 on P3C-induced signaling, IL-6 and TNF-α concentration was measured in macrophage supernatants collected 5 h after stimulation of cells with P3C. […]

TLR2/TLR1 heterodimer [2] = target: T1, TLR2/TLR1 heterodimer; experiment: P3C-induced IL-6 and TNF-α secretion by macrophages (ELISA); conditions: supernatants 5 h after P3C 500 ng/ml
Procedure: as §1
Cytokine secretion was measured in supernatant samples collected at 6 or 24 h time points and stored at −80° C. Samples were analyzed by a multiplex assay at the University of Maryland Baltimore Cytokine Core Facility using a Luminex 100 reader and Softmax Pro software, or by ELISA kits for mouse IL-6 or TNF-α from BioLegend (San Diego, Calif.) and LT-4000 microplate reader.
as §2

TLR2/TLR6 heterodimer = target: T2, TLR2/TLR6 heterodimer (Mus musculus, UniProt Q9QUN7); experiment: P2C-induced cytokine mRNA expression in mouse macrophages; conditions: P2C 50 ng/ml, 1 h
T2 construct: endogenous in cells; host or cells: thioglycollate-elicited mouse peritoneal macrophages
T2 sequence (Q9QUN7 25-784, one chain of several): as above
Text: Total cellular RNA was isolated using Tripure from Roche (San Francisco, Calif.) following manufacture's protocol. RNA was then reverse transcribed using AMV Reverse Transcriptase from Promega (Madison, Wis.) with poly-T priming as per manufacturer's directions. cDNA was then quantified by real-time PCR using Applied Biosystems Fast SYBR Green PCR Master Mix and an ABI Prism 7500HT cycler. Primers used for detection: hypoxanthine phosphoribosyltransferase (HPRT) (forward: […] (SEQ ID NO:51), reverse: […] (SEQ ID NO:52)), TNFα (forward: […] (SEQ ID NO:53), reverse: […] (SEQ ID NO:54)), IL-1β (forward: […] (SEQ ID NO:55), reverse: […] (SEQ ID NO:56)), IFNβ (forward: […] (SEQ ID NO:57), reverse: CTCGGACCACCATCCAGG (SEQ ID NO:58)) and RANTES (forward: […] (SEQ ID NO:59), reverse: […] (SEQ ID NO:60)). The primers were designed using Primer Express 2.0 (Applied Biosystems). Using HPRT as reference, the ΔCt method was used to calculate relative gene expression. One-way ANOVA was preformed, as well as Dunnett's multiple comparison post hoc test with a p≦0.01 selected as the level of significance.
Protein-free Escherichia coli K235 LPS was used at final concentration of 10 ng/ml to stimulate cells. S-[2,3-bis(palmitoyloxy)-(2-RS)-propyl]-N-palmitoyl-(R)-Cys-Ser-Lys4-OH (P3C) and S-[2,3-bis(palmitoyloxy)-(2-RS)-propyl]-[R]-Cys-Ser-Lys4-OH (P2C) were purchased from EMC microcollections GmbH (Tubingen, Germany) and used for cell stimulation at 500 and 50 ng/ml, respectively. Phospho-ERK1/2 and phospho-JNK1/2 rabbit Abs were obtained from Cell Signaling Technology, Inc. β-actin rabbit Ab were from SantaCruz Biotechnology, Inc.
Because of the role TRAP plays in TLR2 signaling, TIRAP TIR-derived decoy peptide effects on TLR2-induced cytokine mRNA expression were examined. Thioglycollate-elicited mouse macrophages were stimulated either by P2C, an agonist that induces signaling through TLR2/TLR6 heterodimerization, or P3C, a TLR2/TLR1 agonist, and effects of TIRAP TR-derived decoy peptides on induction of cytokine mRNA were examined. […] To confirm the inhibitory effect of TR3 and TR6 on P3C-induced signaling, IL-6 and TNF-α concentration was measured in macrophage supernatants collected 5 h after stimulation of cells with P3C. […] Concordantly, both TR3 and TR6 diminished the P3C-induced ERK phosphorylation (FIG. 3D).
C57BL/6J mice were obtained from The Jackson Laboratory (BarHarbor, Me.). Harvesting, culturing, and stimulation of peritoneal macrophages were described in previous publications (1, 18, 19). Escherichia coli K235 LPS (34) was used at the final concentration of 100 ng/ml. The 2,3-bis(palmitoyloxy)-(2-RS)-propyl-N-palmitoyl-(R)-Cys-Ser-Lys4-OH (P3C) and S[2,3-bis(palmitoyloxy)-(2-RS)-propyl]-[R]-Cys-Ser-Lys4-OH (P2C) (EMC Microcollections, Tubingen, Germany) were used at 500 and 50 ng/ml, respectively. Oligonucleotide (ODN) 1668 and low m.w. polyinosinic-polycytidylic acid [poly(I:C)] in complex with LyoVec were obtained from InvivoGen; these agonists were used at 2.5 μM and 400 ng/ml, respectively.

| Sequence | P3C-induced ERK phosphorylation (TLR2/TLR1 heterodimer [1]) | P3C-induced IL-6 and TNF-α secretion (TLR2/TLR1 heterodimer [2]) | P2C-induced TNFα and IL-1β mRNA (TLR2/TLR6 heterodimer; 20 μM peptide) | P2C-induced TNFα and IL-1β mRNA (TLR2/TLR6 heterodimer; 40 μM peptide) |
| --- | --- | --- | --- | --- |
| RQIKIWFQNRRMKWKKPGFLRDPWCKYQML [TR6] | diminished; also recorded: inhibit | profoundly inhibited | significantly less | did not affect significantly |
| RQIKIWFQNRRMKWKKEGSQASLRCF [TR3] | diminished; also recorded: inhibit | profoundly inhibited | significantly less | did not affect significantly |
